Where a name gives a salt, the structure may show the parent alone.
Columns and labels:
[1] = biological target: D1 receptor (Rattus norvegicus, UniProt P18901); assay: biochemical; type: binding, rat (Sprague-Dawley); conditions: [3H]-SCH23390 0.2 nM, rat striated membranes, pH 7.4, 37° C., 20 minutes; read-out: Affinity [K1 (nM)] towards D1 receptor
Description: (§1) The tissue were homogenized in 50 mM Tris/HCl buffer at pH 7.4 (1:100 w/v).
(§2) The homogenate was centrifuged and the pellet resuspended, recentrifuged and resuspended again in 50 mM Tris/HCl buffer at pH 7.4 containing 120 mM NaCl, 5 mM KCl, 2 mM CaCl2 and 1 mM MgCl2.
The mixture was incubated with different concentrations of the tested compounds at 37° C. for 20 minutes, filtered under vacuum through Whatman GF/C filters and then washed 4 times with 5 ml of 50 mM Tris/HCl buffer (pH 7.4) cooled with ice.

[2] = biological target: D2 receptor (Rattus norvegicus, UniProt P61169); assay: biochemical; type: binding, rat (Sprague-Dawley); conditions: [3H]-domperidone 0.3 nM, rat striated membranes, 0.01% BSA, 37° C., 30 minutes; read-out: Affinity [K1 (nM)] towards D2 receptor
Description: as §1, §2
Furthermore, bovine serum albumine (BSA) (0.01%) was added.
The mixture was incubated at 37° C. for 30 minutes for each concentration of tested compounds.

[3] = tested on: D1 -like (Rabbit Splenic Artery); assay: D1-like activity in the Rabbit Splenic Artery (RSA) test; conditions: agonist activity at the peak of the effect; contracted with U46619 0.1 μM
Description: Arterial rings were prepared according to Semeraro et al., Naunyn. Schmied. Arch. Pharmacol., 1990, 342, 539.
The arterial preparations were contracted with U46619 (9,11-di-deoxy-11α,9α-epoxy-methanoprostaglandin F2α) at the submaximal concentration 0.1 μM.
(§3) The tested compounds were cumulatively administered.
(§4) Ref. A was used as reference substance.
(§5) Agonist activity evaluated at the peak of the effect and expressed as potency ratio (EC50 of Ref. A/EC50 of tested compound) is reported in table 2.

[4] = biological target: T1, D2 -like (Rabbit Ear Artery) (Oryctolagus cuniculus, UniProt G1T1Q0); assay: D2-like activity in the Rabbit Ear Artery (REA) test; parameters: species or system New Zealand rabbit; conditions: agonist activity at the peak of the effect; electrically stimulated
T1 construct: the central ear artery was dissected into 3 mm long rings; from tissue; host or cells: rabbit central ear artery rings (male New Zealand rabbits), electrically stimulated
Description: Arterial rings were prepared according to the method described by Steinsland et al., Science, 1978, 443, 199, modified as follows. Male New Zealand rabbits weighing 2.5-3 Kg were sacrificed by intravenous injection of an excess of pentobarbital sodium and exsanguinated. The two ears were taken away and the central ear artery was dissected into 3 mm long rings.
These preparations were set up in a 25 ml organ bath containing Krebs solution (mM/l): NaCl 118, KCl 4.7, CaCl2 2.5, MgSO4 1.2, NaHCO3 25, KH2 PO4 1.2, glucose 11.1, equilibrated with 95% 02 -5% CO2 and maintained at 35°±1° C.
Krebs solution was medicated with EDTA (10 μM) to prevent cathecolamine oxydation, desipramine (0.1 μM) and corticosterone (30 μM), to block neuronal and extraneuronal cathecolamine uptake. The preparations were electrically stimulated (10 Hz, 1 msec, 40-80 mA, 500 msec duration) at 5 minutes intervals.
as §3, §4, §5

T1 sequence (G1T1Q0 1-443): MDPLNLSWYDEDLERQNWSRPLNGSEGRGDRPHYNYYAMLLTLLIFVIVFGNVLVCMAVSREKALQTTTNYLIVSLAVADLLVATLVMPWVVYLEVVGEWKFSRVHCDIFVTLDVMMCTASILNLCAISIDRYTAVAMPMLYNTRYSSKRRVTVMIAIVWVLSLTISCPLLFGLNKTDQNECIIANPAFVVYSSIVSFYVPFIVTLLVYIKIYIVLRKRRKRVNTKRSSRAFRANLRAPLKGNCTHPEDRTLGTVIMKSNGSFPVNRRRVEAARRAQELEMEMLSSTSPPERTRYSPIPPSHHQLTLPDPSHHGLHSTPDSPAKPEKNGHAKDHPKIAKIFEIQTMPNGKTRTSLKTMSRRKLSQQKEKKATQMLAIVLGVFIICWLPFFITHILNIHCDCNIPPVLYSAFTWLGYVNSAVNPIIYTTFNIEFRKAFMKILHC
Chain of D2 receptor (P61169 whole entry): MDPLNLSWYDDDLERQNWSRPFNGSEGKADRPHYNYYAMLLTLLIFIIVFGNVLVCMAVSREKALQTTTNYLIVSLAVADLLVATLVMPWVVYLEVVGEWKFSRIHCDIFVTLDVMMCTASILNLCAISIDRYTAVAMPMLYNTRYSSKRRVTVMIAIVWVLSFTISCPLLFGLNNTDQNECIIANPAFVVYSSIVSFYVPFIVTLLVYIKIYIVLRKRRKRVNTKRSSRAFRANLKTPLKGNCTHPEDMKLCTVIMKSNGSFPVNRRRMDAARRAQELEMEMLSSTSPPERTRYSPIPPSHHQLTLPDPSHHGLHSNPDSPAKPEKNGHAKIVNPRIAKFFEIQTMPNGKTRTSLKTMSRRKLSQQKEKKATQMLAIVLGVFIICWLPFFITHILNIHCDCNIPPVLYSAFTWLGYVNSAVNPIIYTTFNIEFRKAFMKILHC
Chain of D1 receptor (P18901 whole entry): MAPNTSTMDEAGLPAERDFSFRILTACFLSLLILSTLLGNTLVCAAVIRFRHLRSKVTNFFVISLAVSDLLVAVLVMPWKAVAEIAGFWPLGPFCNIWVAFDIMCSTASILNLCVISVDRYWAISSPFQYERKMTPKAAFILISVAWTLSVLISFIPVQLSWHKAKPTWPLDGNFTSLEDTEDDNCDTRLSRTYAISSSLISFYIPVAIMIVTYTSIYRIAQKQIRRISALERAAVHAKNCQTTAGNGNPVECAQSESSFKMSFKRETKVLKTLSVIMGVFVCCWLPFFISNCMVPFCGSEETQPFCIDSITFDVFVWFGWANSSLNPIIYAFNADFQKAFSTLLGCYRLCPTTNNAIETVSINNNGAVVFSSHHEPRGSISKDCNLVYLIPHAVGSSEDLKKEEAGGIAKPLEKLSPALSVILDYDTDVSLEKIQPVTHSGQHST

SMILES: CCCN(CCCCCCNCCc1ccc2c(c1)OCO2)[C@H]1CCc2c(ccc(O)c2O)C1.Cl.Cl [Compound 2, (S)-N-propyl-N-[6-[2-(3,4-methylendioxyphenyl)ethylamino]hexyl]-5,6-dihydroxy-1,2,3,4-tetrahydro-2-naphthylamine dihydrochloride]
- Ki [1]: 25 nM
- Ki [2]: 0.4 nM
- D1 -like (RSA) potency ratio (EC50 of Ref. A/EC50 of tested compound) [3]: 10
- D2 -like (REA) potency ratio (EC50 of Ref. A/EC50 of tested compound) [4]: 0.3

SMILES: CCCN(CCCCCCNCCOc1ccc([N+](=O)[O-])cc1)[C@H]1CCc2c(ccc(O)c2O)C1 [Compound 5, (S)-N-propyl-N-[6-[2-(4-nitrophenoxy)ethylamino]hexyl]-5,6-dihydroxy-1,2,3,4-tetrahydro-2-naphthylamine dihydrochloride]
- Ki [1]: 69 nM
- Ki [2]: 1.5 nM

SMILES: CCCN(CCCCCCNCCOc1ccc(O)cc1)[C@H]1CCc2c(ccc(O)c2O)C1.Cl.Cl [Compound 24, (S)-N-propyl-N-[6-[2-(4-hydroxyphenoxy)ethylamino]hexyl]-5,6-dihydroxy-1,2,3,4-tetrahydro-2-naphthylamine dihydrochloride]
- Ki [1]: 45 nM
- Ki [2]: 1.8 nM
- D1 -like (RSA) potency ratio (EC50 of Ref. A/EC50 of tested compound) [3]: 17
- D2 -like (REA) potency ratio (EC50 of Ref. A/EC50 of tested compound) [4]: 3

SMILES: Br.Br.CCCN(CCCCCCNCCSc1ccc(O)cc1)[C@H]1CCc2c(ccc(O)c2O)C1 [Compound 8, (S)-N-propyl-N-[6-[2-(4-hydroxyphenylthio)ethylamino]hexyl]-5,6-dihydroxy-1,2,3,4-tetrahydro-2-naphthylamine dihydrobromide]
- Ki [1]: 23 nM
- Ki [2]: 0.1 nM
- D1 -like (RSA) potency ratio (EC50 of Ref. A/EC50 of tested compound) [3]: 1
- D2 -like (REA) potency ratio (EC50 of Ref. A/EC50 of tested compound) [4]: 1.7

SMILES: Br.Br.Br.CCCN(CCCCCCN1CCN(Cc2ccc(O)cc2)CC1)[C@H]1CCc2c(ccc(O)c2O)C1 [Compound 15, (S)-N-propyl-N-[6-[4-(4-hydroxyphenylmethyl)piperazin-1-yl]hexyl]-5,6-dihydroxy-1,2,3,4-tetrahydro-2-naphthylamine trihydrobromide]
- Ki [1]: 119 nM
- Ki [2]: 0.24 nM
- D1 -like (RSA) potency ratio (EC50 of Ref. A/EC50 of tested compound) [3]: 0.9
- D2 -like (REA) potency ratio (EC50 of Ref. A/EC50 of tested compound) [4]: 0.5

SMILES: Br.Br.CCCN(CCCCCCNCCCc1ccccc1O)[C@H]1CCc2c(ccc(O)c2O)C1 [Compound 16, (S)-N-propyl-N-[6-[3-(2-hydroxyphenyl)propylamino]hexyl]-5,6-dihydroxy-1,2,3,4-tetrahydro-2-naphthylamine dihydrobromide]
- Ki [1]: 178 nM
- Ki [2]: 0.2 nM
- D1 -like (RSA) potency ratio (EC50 of Ref. A/EC50 of tested compound) [3]: 3
- D2 -like (REA) potency ratio (EC50 of Ref. A/EC50 of tested compound) [4]: 0.8

SMILES: CCCN(CCCCCCN1CCN(c2ccccc2OC)CC1)[C@H]1CCc2c(ccc(O)c2O)C1 [Compound 3, (S)-N-propyl-N-[6-[4-(2-methoxyphenyl)piperazin-1-yl]hexyl]-5,6-dihydroxy-1,2,3,4-tetrahydro-2-naphthylamine trihydrochloride]
- Ki [1]: 69 nM
- Ki [2]: 0.31 nM

SMILES: CCCN(CCCCCCNCCc1ccc(NS(C)(=O)=O)cc1)[C@H]1CCc2c(ccc(O)c2O)C1.Cl.Cl [Compound 31, (S)-N-propyl-N-[6-[2-(4-methylsulphonylaminophenyl)ethylamino]hexyl]-5,6-dihydroxy-1,2,3,4-tetrahydro-2-naphthylamine dihydrochloride]
- D1 -like (RSA) potency ratio (EC50 of Ref. A/EC50 of tested compound) [3]: 100
- D2 -like (REA) potency ratio (EC50 of Ref. A/EC50 of tested compound) [4]: 5

SMILES: Br.Br.CCCN(CCCCCCNCCCc1ccc(O)c(O)c1)[C@H]1CCc2c(ccc(O)c2O)C1 [Compound 13, (S)-N-propyl-N-[6-[3-(3,4-dihydroxyphenyl)propylamino]hexyl]-5,6-dihydroxy-1,2,3,4-tetrahydro-2-naphthylamine dihydrobromide]
- Ki [1]: 29 nM
- Ki [2]: 0.4 nM
- D1 -like (RSA) potency ratio (EC50 of Ref. A/EC50 of tested compound) [3]: 10
- D2 -like (REA) potency ratio (EC50 of Ref. A/EC50 of tested compound) [4]: 14

SMILES: CCCN(CCCCCCNCCc1ccc(O)c(N)c1)[C@H]1CCc2c(ccc(O)c2O)C1.Cl.Cl.Cl [Compound 29, (S)-N-propyl-N-[6-[2-(3-amino-4-hydroxyphenyl)ethylamino]hexyl]-5,6-dihydroxy-1,2,3,4-tetrahydro-2-naphthylamine trihydrochloride]
- D1 -like (RSA) potency ratio (EC50 of Ref. A/EC50 of tested compound) [3]: 50
- D2 -like (REA) potency ratio (EC50 of Ref. A/EC50 of tested compound) [4]: 1.7

SMILES: Br.Br.CCCN(CCCCCCNCCc1ccc2[nH]c(=O)sc2c1)[C@H]1CCc2c(ccc(O)c2O)C1 [Compound 18, (S)-N-propyl-N-[6-[2-(2-oxo-3H-1,3-benzothiazol-6-yl)ethylamino]hexyl]-5,6-dihydroxy-1,2,3,4-tetrahydro-2-naphthylamine dihydrobromide]
- D1 -like (RSA) potency ratio (EC50 of Ref. A/EC50 of tested compound) [3]: 50
- D2 -like (REA) potency ratio (EC50 of Ref. A/EC50 of tested compound) [4]: 5

SMILES: CCCN(CCCCCCNCCc1ccc(NC(N)=O)cc1)[C@H]1CCc2c(ccc(O)c2O)C1.Cl.Cl [Compound 32, (S)-N-propyl-N-[6-[2-(4-aminocarbonylaminophenyl)ethylamino]hexyl]-5,6-dihydroxy-1,2,3,4-tetrahydro-2-naphthylamine dihydrochloride]
- D1 -like (RSA) potency ratio (EC50 of Ref. A/EC50 of tested compound) [3]: 33
- D2 -like (REA) potency ratio (EC50 of Ref. A/EC50 of tested compound) [4]: 10

SMILES: CCCN(CCCCCCNCCc1ccc(C(=O)OC)cc1)[C@H]1CCc2c(ccc(O)c2O)C1.Cl.Cl [Compound 35, (S)-N-propyl-N-[6-[2-(4-methoxycarbonylphenyl)ethylamino]hexyl]-5,6-dihydroxy-1,2,3,4-tetrahydro-2-naphthylamine dihydrochloride]
- D1 -like (RSA) potency ratio (EC50 of Ref. A/EC50 of tested compound) [3]: 2
- D2 -like (REA) potency ratio (EC50 of Ref. A/EC50 of tested compound) [4]: 0.4

SMILES: CCCN(CCCCCCNCCc1ccc(CO)cc1)[C@H]1CCc2c(ccc(O)c2O)C1.Cl.Cl [Compound 36, (S)-N-propyl-N-[6-[2-(4-hydroxymethylphenyl)ethylamino]hexyl]-5,6-dihydroxy-1,2,3,4-tetrahydro-2-naphthylamine dihydrochloride]
- D1 -like (RSA) potency ratio (EC50 of Ref. A/EC50 of tested compound) [3]: 4.5
- D2 -like (REA) potency ratio (EC50 of Ref. A/EC50 of tested compound) [4]: 12

SMILES: CCCN(CCCCCCNC(=O)COc1ccccc1OC)[C@H]1CCc2c(ccc(O)c2O)C1 [Compound 7, (S)-N-propyl-N-[6-[(2-methoxyphenoxy)acetylamino]hexyl]-5,6-dihydroxy-1,2,3,4-tetrahydro-2-naphthylamine hydrochloride]
- Ki [1]: 370 nM
- Ki [2]: 0.25 nM

SMILES: CCCN(CCCCCCNCCc1ccc(OC)c(O)c1)[C@H]1CCc2c(ccc(O)c2O)C1.Cl.Cl [Compound 27, (S)-N-propyl-N-[6-[2-(3-hydroxy-4-methoxyphenyl)ethylamino]hexyl]-5,6-dihydroxy-1,2,3,4-tetrahydro-2-naphthylamine dihydrochloride]
- D1 -like (RSA) potency ratio (EC50 of Ref. A/EC50 of tested compound) [3]: 25
- D2 -like (REA) potency ratio (EC50 of Ref. A/EC50 of tested compound) [4]: 4

SMILES: Br.Br.CCCN(CCCCCCNCCc1ccc(O)c(Cl)c1)[C@H]1CCc2c(ccc(O)c2O)C1 [Compound 11, (S)-N-propyl-N-[6-[2-(3-chloro-4-hydroxyphenyl)ethylamino]hexyl]-5,6-dihydroxy-1,2,3,4-tetrahydro-2-naphthylamine dihydrobromide]
- D1 -like (RSA) potency ratio (EC50 of Ref. A/EC50 of tested compound) [3]: 25
- D2 -like (REA) potency ratio (EC50 of Ref. A/EC50 of tested compound) [4]: 4

SMILES: CCCN(CCCCCCNCC1COc2ccccc2O1)[C@H]1CCc2c(ccc(O)c2O)C1 (stereo partly drawn) [Compound 1, (S)-N-propyl-N-[6-[(1,4-benzodioxan-2-yl)methylamino]hexyl]-5,6-dihydroxy-1,2,3,4-tetrahydro-2-naphthylamine dihydrochloride]
- Ki [1]: 49 nM
- Ki [2]: 0.66 nM

SMILES: CCCN(CCCCCCNCCOc1ccccc1[N+](=O)[O-])[C@H]1CCc2c(ccc(O)c2O)C1 [Compound 4, (S)-N-propyl-N-[6-[2-(2-nitrophenoxy)ethylamino]hexyl]-5,6-dihydroxy-1,2,3,4-tetrahydro-2-naphthylamine dihydrochloride]
- Ki [1]: 78 nM
- Ki [2]: 1.1 nM
